Data taken from patent publication US20240150334A1, “HSD17B13 INHIBITORS AND/OR DEGRADERS” (Pfizer Inc., priority 2022, published 2024).
Structures can show the parent of a compound that is named as a salt.

Legend:
HSD17B13 enzyme = HSD17B13 enzyme (Homo sapiens (Human), UniProt Q7Z5P4); assay: hHSD17B13 IC50 Assay (FAC beta-estradiol), purified protein enzyme activity assay with NAD(P)H-Glo luciferase readout; assay type: biochemical; conditions: geometric mean, 12 μM FAC beta-estradiol, 500 μM NAD+, read-out: hHSD17B13_IC50 GMean IC50
Procedure: The following protocols may of course be varied by those skilled in the art. hHSD17B13 IC50 Assay (FAC beta-estradiol)
HSD17B13 enzyme inhibition potency of test compounds was determined using a purified protein biochemical enzyme activity assay, using NAD(P)H-Glo luciferase readout (Promega). HSD17B13 enzyme uses the oxidized form of nicotinamide adenine dinucleotide (NAD+) as a cofactor during metabolism of Beta-Estradiol (substrate) to […], while converting NAD+ to the reduced form (NADH). The Promega NAD(P)H-Glo™ assay is a homogeneous bioluminescent assay that generates a light signal from biochemical reactions that contain NADH (or nicotinamide adenine dinucleotide phosphate, NADPH). In the presence of NADH (or NADPH), the enzyme Reductase reduces a proluciferin reductase substrate to form luciferin. Luciferin then is quantified using Ultra-Glo™ Recombinant Luciferase (rLuciferase), and the light signal produced is proportional to the amount of NAD(P)H in the sample. […] The reaction was initiated by the addition of 2 μL/well purified HSD17B13 protein (30 nM FAC in assay buffer). Compound, substrate mix and HSD17B13 protein was incubated in the dark at room temperature for 2 hours before the addition of 3 μL/well NAD(P)H-Glo detection reagent, prepared from luciferase detection reagent and reductase/reductase substrate, as per manufacturer's instructions (Promega, G9061). Detection reagent was incubated in the dark for 1 hour at room temperature before plates were read on the Envision plate reader (Perkin Elmer) using a luminescent protocol. Data expressed as relative luminescent units (RLUs) were then normalized to control wells using Activity Base (IDBS). Zero percent effect (ZPE) was defined as RLUs generated from uninhibited HSD17B13 protein (vehicle control).

wild type human HSD17B13 = wild type human HSD17B13 (Homo sapiens (Human), UniProt Q7Z5P4); assay: HEK_Beta-Est LCMS_IC50_Tekcel, whole-cell HEK-HSD17B13 inhibition assay, estrone production by LCMS; assay type: cell-based; conditions: geometric mean, HEK cells stably expressing wild type human HSD17B13, 25 μM FAC beta-estradiol, read-out: HEK_Beta-Est LCMS_IC50—Tekcel GMean IC50
Summary of the method: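 Readout was LCMS quantitation of estrone made from beta-estradiol with NAD+ as cofactor. Whole HEK-HSD17B13 cells were given compound for 1 hour, then the reaction for 2 hours, both at 37° C. Product area ratios were normalized to vehicle controls as zero percent effect.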

wild type human HSD17B13, sequence (Q7Z5P4 20-300): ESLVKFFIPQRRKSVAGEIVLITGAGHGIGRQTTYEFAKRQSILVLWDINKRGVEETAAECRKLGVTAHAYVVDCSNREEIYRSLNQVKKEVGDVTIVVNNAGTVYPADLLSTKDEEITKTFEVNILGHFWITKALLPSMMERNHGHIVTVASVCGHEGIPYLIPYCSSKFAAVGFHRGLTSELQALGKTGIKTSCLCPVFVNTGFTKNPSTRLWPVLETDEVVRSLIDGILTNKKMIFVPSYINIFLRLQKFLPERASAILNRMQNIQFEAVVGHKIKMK
HSD17B13 enzyme, sequence (Q7Z5P4 20-300): as above

Row | SMILES | IC50 (HSD17B13 enzyme) | IC50 (wild type human HSD17B13)
1 | COc1cc2cn([C@H]3CC[C@H](CNC(=O)c4cc(F)c(O)c(F)c4)CC3)nc2cn1 [Example 6, 3,5-Difluoro-4-hydroxy-N-{[(1r,4r)-4-(5-methoxy-2H-pyrazolo[3,4-c]pyridin-2-yl)cyclohexyl]methyl}benzamide] | 0.021 µM | 0.44 µM
2 | COc1ncc(-c2cc3nn([C@H]4CC[C@H](CNC(=O)c5cc(F)c(O)c(F)c5)CC4)cc3cn2)cn1 [Example 8, 3,5-Difluoro-4-hydroxy-N-({(1r,4r)-4-[6-(2-methoxypyrimidin-5-yl)-2H-pyrazolo[4,3-c]pyridin-2-yl]cyclohexyl}methyl)benzamide] | 0.018 µM | 0.32 µM
3 | O=C(NC[C@H]1CC[C@H](n2cc3ccc(-c4cncnc4)cc3n2)CC1)c1cc(F)c(O)c(F)c1F [Example 9, 2,3,5-Trifluoro-4-hydroxy-N-({(1r,4r)-4-[6-(pyrimidin-5-yl)-2H-indazol-2-yl]cyclohexyl}methyl)benzamide] | 0.013 µM | 0.17 µM
4 | O=C(NC[C@H]1CC[C@H](n2cc3ccc(-c4cnn(C5CCOCC5)c4)cc3n2)CC1)c1cc(F)c(O)c(F)c1 [Example 12, 3,5-Difluoro-4-hydroxy-N-{[(1r,4r)-4-{6-[1-(oxan-4-yl)-1H-pyrazol-4-yl]-2H-indazol-2-yl}cyclohexyl]methyl}benzamide] | 0.011 µM | 0.29 µM
5 | O=C(NC[C@H]1CC[C@H](c2noc(-c3ccc(C(F)(F)F)cn3)n2)CC1)c1cc(F)c(O)c(F)c1 [Example 13, 3,5-Difluoro-4-hydroxy-N-{[(1r,4r)-4-{5-[5-(trifluoromethyl)pyridin-2-yl]-1,2,4-oxadiazol-3-yl}cyclohexyl]methyl}benzamide] | 0.017 µM | 0.47 µM
6 | COc1ccc(-c2noc([C@]34CC[C@](CNC(=O)c5cc(F)c(O)c(F)c5F)(CC3)CC4)n2)nn1 [Example 15, 2,3,5-Trifluoro-4-hydroxy-N-({4-[3-(6-methoxypyridazin-3-yl)-1,2,4-oxadiazol-5-yl]bicyclo[2.2.2]octan-1-yl}methyl)benzamide] | 0.0071 µM | 0.22 µM
7 | O=C(NC[C@H]1CC[C@H](n2cc3ccc(F)cc3n2)CC1)c1cc(F)c(O)c(F)c1 [Example 16, 3,5-Difluoro-N-{[(1r,4r)-4-(6-fluoro-2H-indazol-2-yl)cyclohexyl]methyl}-4-hydroxybenzamide, ammonium salt] | 0.017 µM | 0.31 µM
8 | CC(C)(C)C(=O)Nc1ccc(-c2noc([C@H]3CC[C@H](CNC(=O)c4cc(F)c(O)c(F)c4)CC3)n2)nn1 [Example 17, N-{[(1r,4r)-4-{3-[6-(2,2-Dimethylpropanamido)pyridazin-3-yl]-1,2,4-oxadiazol-5-yl}cyclohexyl]methyl}-3,5-difluoro-4-hydroxybenzamide, ammonium salt] | 0.012 µM | 0.27 µM
9 | O=C(NC[C@H]1CC[C@H](n2cc(-c3ccc4nccnc4c3)nn2)CC1)c1cc(F)c(O)c(F)c1 [Example 18, 3,5-Difluoro-4-hydroxy-N-({(1r,4r)-4-[4-(quinoxalin-6-yl)-1H-1,2,3-triazol-1-yl]cyclohexyl}methyl)benzamide] | 0.018 µM | 0.42 µM
10 | Cn1ccc(-c2ccc3c(c2)CN([C@H]2CC[C@H](CNC(=O)c4cc(F)c(O)c(F)c4)CC2)C3=O)n1 [Example 20, 3,5-Difluoro-4-hydroxy-N-({(1r,4r)-4-[5-(1-methyl-1H-pyrazol-3-yl)-1-oxo-1,3-dihydro-2H-isoindol-2-yl]cyclohexyl}methyl)benzamide] | 0.016 µM | 0.49 µM
11 | O=C(NC[C@H]1CC[C@H](n2cc3ccccc3n2)CC1)c1cc(F)c(O)c(F)c1 [Example 22, 3,5-difluoro-4-hydroxy-N-{[(1r,4r)-4-(2H-indazol-2-yl)cyclohexyl]methyl} benzamide] | 0.02 µM | 0.39 µM
12 | O=C(NC[C@H]1CC[C@H](n2cc3ccc(-c4ncccn4)cc3n2)CC1)c1cc(F)c(O)c(F)c1 [Example 24, 3,5-difluoro-4-hydroxy-N-({(1r,4r)-4-[6-(pyrimidin-2-yl)-2H-indazol-2-yl]cyclohexyl}methyl) benzamide] | 0.014 µM | 0.12 µM
13 | O=C(NC[C@H]1CC[C@H](n2cc3ccc(Cl)cc3n2)CC1)c1cc(F)c(O)c(F)c1F [Example 25, N-{[(1r,4r)-4-(6-chloro-2H-indazol-2-yl)cylohexyl]methyl}-2,3,5-trifluoro-4-hydroxybenzamide] | 0.014 µM | 0.3 µM

Other lines, results leading:

Row | IC50 (HSD17B13 enzyme) | IC50 (wild type human HSD17B13) | SMILES
14 | 0.012 µM | 0.18 µM | O=C(NC[C@H]1CC[C@H](n2cc3ccc(-c4ncccn4)cc3n2)CC1)c1cc(F)c(O)c(F)c1F [Example 27, 2,3,5-trifluoro-4-hydroxy-N-({(1r,4r)-4-[6-(pyrimidin-2-yl)-2H-indazol-2-yl]cyclohexyl}methyl) benzamide]
15 | 0.0087 µM | 0.17 µM | O=C(NC[C@H]1CC[C@H](n2cc3ccc(-c4cnccn4)cc3n2)CC1)c1cc(F)c(O)c(F)c1F [Example 28, 2,3,5-trifluoro-4-hydroxy-N-({(1r,4r)-4-[6-(pyrazin-2-yl)-2H-indazol-2-yl]cyclohexyl}methyl)benzamide]
16 | 0.025 µM | 0.4 µM | O=C(NC[C@H]1CC[C@H](n2cc3cc(OCC4CC4)ncc3n2)CC1)c1cc(F)c(O)c(F)c1 [Example 32, N-({(1r,4r)-4-[5-(cyclopropyl-methoxy)-2H-pyrazolo[3,4-c]pyridin-2-yl]cyclohexyl}methyl)-3,5-difluoro-4-hydroxybenzamide, ammonium salt]
17 | 0.0043 µM | 0.31 µM | Cn1cc(-c2ccc3cn([C@H]4CC[C@H](CNC(=O)c5cc(F)c(O)c(F)c5)CC4)nc3c2)c(C(F)F)n1 [Example 34, N-{[(1r,4r)-4-{6-[3-(difluoromethyl)-1-methyl-1H-pyrazol-4-yl]-2H-indazol-2-yl}cyclohexyl]methyl}-3,5-difluoro-4-hydroxybenzamide]
18 | 0.01 µM | 0.35 µM | Cn1cc(-c2ccc3cn([C@H]4CC[C@H](CNC(=O)c5cc(F)c(O)c(F)c5)CC4)nc3c2)c(C2CC2)n1 [Example 35, N-({(1r,4r)-4-[6-(3-cyclopropyl-1-methyl-1H-pyrazol-4-yl)-2H-indazol-2-yl]cyclohexyl}methyl)-3,5-difluoro-4-hydroxybenzamide]
19 | 0.0084 µM | 0.15 µM | O=C(NC[C@H]1CC[C@H](n2cc3ccc(-c4cnn5c4OCC5)cc3n2)CC1)c1cc(F)c(O)c(F)c1 [Example 37, N-({(1r,4r)-4-[6-(2,3-dihydropyrazolo[5,1-b][1,3]oxazol-7-yl)-2H-indazol-2-yl]cyclohexyl}methyl)-3,5-difluoro-4-hydroxybenzamide]
20 | 0.0046 µM | 0.15 µM | O=C(NC[C@H]1CC[C@H](n2cc3ccc(-c4cnn(C5CCOC5)c4)cc3n2)CC1)c1cc(F)c(O)c(F)c1 (stereo partly drawn) [Example 38, 3,5-difluoro-4-hydroxy-N-{[(1r,4r)-4-{6-[1-(oxolan-3-yl)-1H-pyrazol-4-yl]-2H-indazol-2-yl}cyclohexyl]methyl} benzamide]
21 | 0.0057 µM | 0.25 µM | Cc1c(-c2ccc3cn([C@H]4CC[C@H](CNC(=O)c5cc(F)c(O)c(F)c5)CC4)nc3c2)cnn1C [Example 39, N-({(1r,4r)-4-[6-(1,5-dimethyl-1H-pyrazol-4-yl)-2H-indazol-2-yl]cyclohexyl}methyl)-3,5-difluoro-4-hydroxybenzamide]
